From patent US6737383B1, “Herbicidal oxadiazolidines” (priority 1999, dated 2004)

How the values were obtained:
sugar beet = test: Test B pre/postemergence sugar beet; format: in vivo, Beta vulgaris
Method in brief: (§1)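 Herbicidal effect was estimated by eye on a ten-point control scale after plants spent twelve to sixteen days in a greenhouse following soil or foliar treatment. Foliar sprays targeted plants at one to four leaves; all doses were formulated in a non-phytotoxic solvent with surfactant.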

bedstraw = test: Test B pre/postemergence bedstraw; format: in vivo, Galium aparine; conditions: Preemergence
Method in brief: as §1

velvetleaf = test: Test B pre/postemergence velvetleaf; format: in vivo, Abutilon theophrasti
Method in brief: as §1

corn = test: Test B pre/postemergence corn; format: in vivo, Zea mays
Method in brief: as §1

surinam grass = test: Test B pre/postemergence surinam grass; format: in vivo, Brachiaria decumbens
Method in brief: as §1

rape = test: Test B pre/postemergence rape; format: in vivo, Brassica napus
Method in brief: as §1

crabgrass = test: Test B pre/postemergence crabgrass; format: in vivo, Digitaria sanguinalis
Method in brief: as §1

cocklebur = test: Test B pre/postemergence cocklebur; format: in vivo, Xanthium strumarium
Method in brief: as §1

wheat = test: Test B pre/postemergence wheat; format: in vivo, Triticum aestivum
Method in brief: as §1

blackgrass = test: Test B pre/postemergence blackgrass; format: in vivo, Alopecurus myosuroides
Method in brief: as §1

wild oat = test: Test B pre/postemergence wild oat; format: in vivo, Avena fatua
Method in brief: as §1

soybean = test: Test B pre/postemergence soybean; format: in vivo, Glycine max
Method in brief: as §1

morningglory = test: Test B pre/postemergence morningglory; format: in vivo, Ipomoea hederacea
Method in brief: as §1

pigweed = test: Test B pre/postemergence pigweed; format: in vivo, Amaranthus retroflexus
Method in brief: as §1

purple nutsedge = test: Test B pre/postemergence purple nutsedge; format: in vivo, Cyperus rotundus
Method in brief: as §1

giant foxtail = test: Test B pre/postemergence giant foxtail; format: in vivo, Setaria faberii
Method in brief: as §1

[1] = Postemergence, Rate 62 g/ha, scale 0 to 10, 0 is no effect, 10 is complete control
[2] = Postemergence, Rate 125 g/ha, scale of 0 to 10 where 0 is no effect and 10 is complete control
[3] = Preemergence, Rate 62 g/ha, scale of 0 to 10 where 0 is no effect and 10 is complete control
[4] = Preemergence, Rate 125 g/ha, scale of 0 to 10 where 0 is no effect and 10 is complete control
[5] = Preemergence, Rate 250 g/ha, scale 0 (no effect) to 10 (complete control)
[6] = Rate 250 g/ha, Postemergence, scale 0 to 10, 0 is no effect, 10 is complete control
[7] = Rate 500 g/ha, Postemergence, scale 0 to 10, 0 is no effect, 10 is complete control
[8] = Preemergence, Rate 500 g/ha, scale of 0 to 10 where 0 is no effect and 10 is complete control

## CC(C)N(C(=O)n1oc(=O)n(CF)c1=O)c1ccc(F)cc1 [Compound 709]
Sugar beet; [1]
  Plant response rating, Sugarbeets: 0
Sugar beet; [2]
  Sugarbeets plant response rating: 0
Sugar beet; [3]
  Sugarbeets plant response rating: 0
Sugar beet; [4]
  Plant response rating, Sugarbeets: 0
Sugar beet; [5]
  Sugarbeets plant response rating: 0
Sugar beet; [6]
  Sugarbeets plant response rating: 0
Sugar beet; [7]
  Sugarbeets plant response rating: 0
bedstraw; Rate 62 g/ha, scale of 0 to 10 where 0 is no effect and 10 is complete control
  Bedstraw plant response rating: 0
bedstraw; Rate 125 g/ha, scale of 0 to 10 where 0 is no effect and 10 is complete control
  Plant response rating, Bedstraw: 0
bedstraw; Rate 250 g/ha, scale 0 (no effect) to 10 (complete control)
  Bedstraw plant response rating: 0
bedstraw; Rate 500 g/ha, scale of 0 to 10 where 0 is no effect and 10 is complete control
  Plant response rating, Bedstraw: 0
velvetleaf; [1]
  Plant response rating, Velvetleaf: 4
velvetleaf; [2]
  Velvetleaf plant response rating: 4
velvetleaf; [3]
  Velvetleaf plant response rating: 0
velvetleaf; [4]
  Plant response rating, Velvetleaf: 0
velvetleaf; [5]
  Velvetleaf plant response rating: 0
velvetleaf; [6]
  Velvetleaf plant response rating: 4
velvetleaf; [7]
  Velvetleaf plant response rating: 6
corn; [1]
  Plant response rating, Corn: 0
corn; [2]
  Corn plant response rating: 0
corn; [3]
  Corn plant response rating: 0
corn; [4]
  Plant response rating, Corn: 0
corn; [5]
  Corn plant response rating: 0
corn; [6]
  Corn plant response rating: 0
corn; [7]
  Corn plant response rating: 0
Surinam grass; [1]
  Plant response rating, B. signalgrass: 0
Surinam grass; [2]
  B. signalgrass plant response rating: 0
Surinam grass; [3]
  B. signalgrass plant response rating: 0
Surinam grass; [4]
  Plant response rating, B. signalgrass: 0
Surinam grass; [5]
  B. signalgrass plant response rating: 0
Surinam grass; [8]
  Plant response rating, B. signalgrass: 0
Surinam grass; [6]
  B. signalgrass plant response rating: 0
Surinam grass; [7]
  B. signalgrass plant response rating: 0
rape; [1]
  Plant response rating, Rape: 0
rape; [2]
  Rape plant response rating: 0
rape; [3]
  Rape plant response rating: 0
rape; [4]
  Plant response rating, Rape: 0
rape; [5]
  Rape plant response rating: 0
rape; [6]
  Rape plant response rating: 0
rape; [7]
  Rape plant response rating: 0
crabgrass; [1]
  Plant response rating, Crabgrass: 2
crabgrass; [2]
  Crabgrass plant response rating: 3
crabgrass; [3]
  Crabgrass plant response rating: 2
crabgrass; [4]
  Plant response rating, Crabgrass: 3
crabgrass; [5]
  Crabgrass plant response rating: 7
crabgrass; [6]
  Crabgrass plant response rating: 6
crabgrass; [7]
  Crabgrass plant response rating: 8
cocklebur; [1]
  Plant response rating, Cocklebur: 0
cocklebur; [2]
  Cocklebur plant response rating: 0
cocklebur; [3]
  Cocklebur plant response rating: 0
cocklebur; [4]
  Plant response rating, Cocklebur: 0
cocklebur; [5]
  Cocklebur plant response rating: 0
cocklebur; [8]
  Plant response rating, Cocklebur: 0
cocklebur; [6]
  Cocklebur plant response rating: 0
cocklebur; [7]
  Cocklebur plant response rating: 3
wheat; [1]
  Plant response rating, Wheat: 0
wheat; [2]
  Wheat plant response rating: 0
wheat; [3]
  Wheat plant response rating: 0
wheat; [4]
  Plant response rating, Wheat: 0
wheat; [5]
  Wheat plant response rating: 0
wheat; [6]
  Wheat plant response rating: 0
wheat; [7]
  Wheat plant response rating: 0
blackgrass; [1]
  Plant response rating, Blackgrass: 0
blackgrass; [2]
  Blackgrass plant response rating: 0
blackgrass; [3]
  Blackgrass plant response rating: 0
blackgrass; [4]
  Plant response rating, Blackgrass: 0
blackgrass; [5]
  Blackgrass plant response rating: 0
blackgrass; [8]
  Plant response rating, Blackgrass: 0
blackgrass; [6]
  Blackgrass plant response rating: 0
blackgrass; [7]
  Blackgrass plant response rating: 0
Wild oat; [1]
  Plant response rating, Wild oats: 0
Wild oat; [2]
  Wild oats plant response rating: 0
Wild oat; [3]
  Wild oats plant response rating: 0
Wild oat; [4]
  Plant response rating, Wild oats: 0
Wild oat; [5]
  Wild oats plant response rating: 0
Wild oat; [6]
  Wild oats plant response rating: 0
Wild oat; [7]
  Wild oats plant response rating: 0
soybean; [1]
  Plant response rating, Soybean: 1
soybean; [2]
  Soybean plant response rating: 3
soybean; [3]
  Soybean plant response rating: 0
soybean; [4]
  Plant response rating, Soybean: 0
soybean; [5]
  Soybean plant response rating: 0
soybean; [6]
  Soybean plant response rating: 3
soybean; [7]
  Soybean plant response rating: 4
morningglory; [2]
  Morningglory plant response rating: 0
morningglory; [3]
  Morningglory plant response rating: 0
morningglory; [4]
  Plant response rating, Morningglory: 0
morningglory; [5]
  Morningglory plant response rating: 0
morningglory; [6]
  Morningglory plant response rating: 2
morningglory; [7]
  Morningglory plant response rating: 6
pigweed; [1]
  Plant response rating, Redroot pigweed: 5
pigweed; [2]
  Redroot pigweed plant response rating: 5
pigweed; [3]
  Redroot pigweed plant response rating: 0
pigweed; [4]
  Plant response rating, Redroot pigweed: 0
pigweed; [5]
  Redroot pigweed plant response rating: 5
pigweed; [6]
  Redroot pigweed plant response rating: 8
pigweed; [7]
  Redroot pigweed plant response rating: 8
Purple nutsedge; [1]
  Plant response rating, Nutsedge: 0
Purple nutsedge; [2]
  Nutsedge plant response rating: 0
Purple nutsedge; [3]
  Nutsedge plant response rating: 0
Purple nutsedge; [4]
  Plant response rating, Nutsedge: 0
Purple nutsedge; [6]
  Nutsedge plant response rating: 0
Purple nutsedge; [7]
  Nutsedge plant response rating: 6
Giant foxtail; [1]
  Plant response rating, Giant foxtail: 3
Giant foxtail; [2]
  Giant foxtail plant response rating: 4
Giant foxtail; [3]
  Giant foxtail plant response rating: 2
Giant foxtail; [4]
  Plant response rating, Giant foxtail: 4
Giant foxtail; [5]
  Giant foxtail plant response rating: 7
Giant foxtail; [6]
  Giant foxtail plant response rating: 8
Giant foxtail; [7]
  Giant foxtail plant response rating: 9
